One data set concerns the target T1, human NPR-A (Homo sapiens, UniProt P16066).
T1 construct: expressed in transfected cells; host or cells: HEK 293 cells, transient, Lipofectamine 2000
T1 sequence (P16066 33-1061): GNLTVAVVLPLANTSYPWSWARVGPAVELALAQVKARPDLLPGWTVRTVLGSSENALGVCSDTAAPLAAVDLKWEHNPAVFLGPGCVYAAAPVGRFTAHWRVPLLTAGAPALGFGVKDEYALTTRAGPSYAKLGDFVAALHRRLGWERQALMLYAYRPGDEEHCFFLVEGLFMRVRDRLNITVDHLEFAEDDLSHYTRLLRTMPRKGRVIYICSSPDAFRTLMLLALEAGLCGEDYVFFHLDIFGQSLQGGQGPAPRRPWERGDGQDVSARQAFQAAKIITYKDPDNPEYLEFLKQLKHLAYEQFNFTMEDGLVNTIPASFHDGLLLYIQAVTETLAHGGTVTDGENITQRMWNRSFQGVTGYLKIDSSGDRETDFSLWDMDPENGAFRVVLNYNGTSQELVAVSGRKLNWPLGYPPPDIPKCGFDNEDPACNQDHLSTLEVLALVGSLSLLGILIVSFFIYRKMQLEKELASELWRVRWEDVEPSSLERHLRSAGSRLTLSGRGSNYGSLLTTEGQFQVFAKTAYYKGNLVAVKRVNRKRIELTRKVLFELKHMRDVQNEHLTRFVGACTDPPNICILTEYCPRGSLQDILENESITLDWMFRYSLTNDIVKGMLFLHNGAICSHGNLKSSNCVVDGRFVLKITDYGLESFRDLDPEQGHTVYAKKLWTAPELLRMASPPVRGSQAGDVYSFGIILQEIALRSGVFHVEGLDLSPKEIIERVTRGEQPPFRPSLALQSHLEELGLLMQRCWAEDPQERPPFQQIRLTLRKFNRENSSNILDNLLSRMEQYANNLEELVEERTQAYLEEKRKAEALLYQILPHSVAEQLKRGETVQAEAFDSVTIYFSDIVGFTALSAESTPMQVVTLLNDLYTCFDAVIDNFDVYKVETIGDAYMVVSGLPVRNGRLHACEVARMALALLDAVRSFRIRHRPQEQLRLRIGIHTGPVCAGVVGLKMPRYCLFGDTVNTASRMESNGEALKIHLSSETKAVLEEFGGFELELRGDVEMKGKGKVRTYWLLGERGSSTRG
The data set can be described thus: cGMP ALPHAscreen, cGMP production in HEK 293 cells transiently overexpressing hNPR-A. Type of data set: cell-based. The settings on record: HEK 293 cells overexpressing hNPR-A. The procedure: Cells were cultured at 5% CO2 and 37 °C. HEK 293 cells were cultured in high glucose DMEM (Gibco, Carlsbad, CA, USA) supplemented with 10% FBS, and 1% penicillin/streptomycin. HEK 293 cells were seeded in media lacking penicillin/streptomycin 24 to 48 h pre-transfection. PC12 cells were cultured in high glucose DMEM (Gibco) supplemented with 10% FBS and 1% penicillin/streptomycin.
HEK 293 cells were transfected using the lipofectamine 2000 transfection protocol (Invitrogen). Cells (95% confluence) were transfected with 45% pcDNA3.1/hNPR-A, 45% pcDNA3.1, and 10% pEGFP-NI to the optimal DNA concentration specified in the protocol. The co-transfection with pEGFP-NI plasmid allowed the determination of the transfection efficiency. This was assessed by the estimation of the number of GFP-expressing cells using an Olympus IX70 inverted fluorescence microscope. Transfected cells were used for assay purposes within 24 h.
The cGMP ALPHAscreen was performed using the ALPHAscreen Protein A detection kit and the biotinylated cGMP supplement (Perkin Elmer, Waltham, MA, USA) with rabbit anti-cGMP polyclonal antibody (Biovision, Mountain View, CA, USA). Cells were detached from the flask and the resulting pellet was resuspended in stimulation buffer (HBSS supplemented with 0.1% w/v BSA and 1 mM IBMX at 37 °C). Cells were added to a white 384-well Optiplate (Perkin Elmer, Waltham, USA) to 30,000 cells per well for HEK 293 cells and 10,000 cells per well for PC12 cells. Cells were incubated with different concentrations of test peptides (concentration range of 1 × 10^−5 to 1 × 10^−11 M in stimulation buffer) at 37 °C for 30 min. Cells were lysed with lysis buffer (1 M HEPES, 0.3% Tween-20, 1% BSA in H2O, pH 7.4). Then 5 μL acceptor-bead mix was added to each well under subdued lighting conditions, followed by 5 μL of donor-bead mix. Plates were incubated for ~12 h, slowly shaking at room temperature. After incubation, the ALPHAscreen signal was measured using an EnVision plate reader (Perkin Elmer). The standard curve consisted of cGMP in a concentration range of 1 × 10^−6 to 1 × 10^−12 M. All data points were acquired in triplicate and were analyzed using GraphPad Prism 5.0 software (GraphPad Software, Inc., San Diego, CA, USA).

The next data set concerns the target T2, NEP (Homo sapiens, UniProt P08473).
T2 construct: purchased R&D Systems (Minneapolis, MN, USA)
The data set can be described thus: Stability to neutral endopeptidase 24.11 (NEP). The note with it: 3 h; 100 μL of 500 μM peptide, 500 ng NEP, 100 mM Tris.HCl, 150 mM NaCl, pH 7.4, 37 °C, RP-HPLC peak height. It counts as in vitro ADME. On the procedure: NEP and plasmin stability: About 100 μL of 500 μM peptide was incubated with 500 ng NEP (activity 400 pmol min^−1 μg^−1) or 10 μg plasmin (0.51 U mg^−1, 0.51 μmol min^−1 mg^−1) in 100 mM Tris.HCl and 150 mM NaCl (pH 7.4) at 37 °C. Then, 50 μL aliquots were removed at designated times, quenched by heating to 100 °C for 4 min, and stored at −20 °C until subjected to RP-HPLC analysis.

Where a SMILES comes first, the peptide text is derived from it. Bridges are numbered along the chain shown (N, C = ends).

T2 sequence (P08473 whole entry): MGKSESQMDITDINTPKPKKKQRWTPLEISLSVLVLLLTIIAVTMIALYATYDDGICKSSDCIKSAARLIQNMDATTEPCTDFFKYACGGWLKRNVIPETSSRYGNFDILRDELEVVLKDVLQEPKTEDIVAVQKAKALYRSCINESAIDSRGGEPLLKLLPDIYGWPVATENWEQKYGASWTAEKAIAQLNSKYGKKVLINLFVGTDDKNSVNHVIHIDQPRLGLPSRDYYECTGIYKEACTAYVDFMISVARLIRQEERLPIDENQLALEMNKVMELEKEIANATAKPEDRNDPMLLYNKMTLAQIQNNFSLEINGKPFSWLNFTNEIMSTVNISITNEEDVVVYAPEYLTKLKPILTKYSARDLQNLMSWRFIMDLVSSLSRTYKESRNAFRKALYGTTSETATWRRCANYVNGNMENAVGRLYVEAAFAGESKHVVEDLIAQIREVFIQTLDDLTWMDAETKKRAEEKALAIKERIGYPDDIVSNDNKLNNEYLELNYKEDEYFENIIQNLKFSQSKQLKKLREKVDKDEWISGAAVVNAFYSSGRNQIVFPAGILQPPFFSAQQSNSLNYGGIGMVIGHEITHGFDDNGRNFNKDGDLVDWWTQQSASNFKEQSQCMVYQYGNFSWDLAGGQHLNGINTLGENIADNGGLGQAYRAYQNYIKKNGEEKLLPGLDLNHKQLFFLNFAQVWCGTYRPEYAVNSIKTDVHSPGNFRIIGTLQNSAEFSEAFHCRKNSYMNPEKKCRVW

In the case of `CC[C@H](C)[C@H](NC(=O)[C@H](CCCCN)NC(=O)[C@H](CO)NC(=O)[C@H](CC(=O)O)NC(=O)[C@@H](N)CO)C(=O)NCC(=O)N[C@@H](CC(N)=O)C(=O)NCC(=O)N[C@H]1CSSC[C@@H](C(=O)N[C@@H](CC(N)=O)C(=O)N[C@@H](CCCNC(=N)N)C(=O)N[C@H](C(=O)N[C@@H](CCSC)C(=O)N[C@@H](CCC(N)=O)C(=O)N[C@@H](CC(N)=O)C(=O)N2CCC[C@H]2C(=O)N2CCC[C@H]2C(=O)N[C@@H](CCCCN)C(=O)N[C@@H](CCCCN)C(=O)N[C@@H](Cc2ccccc2)C(=O)N[C@@H](CO)C(=O)NCC(=O)N[C@@H](CCC(=O)O)C(=O)O)[C@@H](C)CC)NC(=O)CNC(=O)[C@H](CC(C)C)NC(=O)CNC(=O)[C@H](CO)NC(=O)[C@H](C(C)C)NC(=O)[C@H](CO)NC(=O)CNC(=O)[C@H]([C@@H](C)CC)NC(=O)[C@H](CCCNC(=N)N)NC(=O)[C@H](CC(=O)O)NC(=O)[C@H](CC(C)C)NC(=O)[C@@H]2CCCN2C(=O)[C@H](Cc2ccccc2)NC(=O)CNC(=O)[C@H](Cc2ccccc2)NC1=O` [TNPc] (H-SDSKIGNGCFGFPLDRIGSVSGLGCNRIMQNPPKKFSGE-OH; disulfide 9-25), the Emax at 10 µM on human NPR-A (HEK293, read-out: cGMP production, % of the maximum response (compared with DNP, hANP, hBNP), at 10 μM) is approximately 30%. The EC50 on human NPR-A (30 min at 37 °C, cGMP ALPHAscreen, three separate experiments in triplicate, read-out: hNPR-A EC50 (95% CI), potency to stimulate cGMP production) is more than 10 µM. Moreover, the “state after incubation with NEP” value at NEP was “remained intact”.

The values above are taken from publication PMC10095932 (Molecules, 2023).
